The values below come from patent publication US6156291A, “Chemical and pharmacological standardization of herbal extracts” (CV Technologies Inc., priority 1998, dated 2000).

For assay [1] the following is noted: pure ginsenosides; literature; cited from earlier work.
Assay [2] deals with rat brain synaptosomes. Nature of the assay: choline uptake in rat brain synaptosomes. In kind it is biochemical. The settings on record: for effect on choline uptake (FIG. 1): various doses, rat brain synaptosomes. From the text:
(1) Effects of CVT-E001 on choline uptake in isolated brain synaptosomes in rats
(§1) Choline uptake has been examined in synaptosome preparations from whole brain and hippocampus in the presence of Rb1, CVT-E001 and HC3.
The magnitude of these effects are consistent with the previous studies.

Assay [3] concerns rat brain synaptosomes. Particulars: literature (Benishin, 1992); Rb1 positive control, HC3 negative control; cited from earlier work.
For assay [4], the system named is synaptosomes prepared from rat hippocampus. As to the kind of experiment: choline uptake into synaptosomes prepared from rat hippocampus. In kind it is biochemical. The settings on record: Table 2.
Excerpt: as §1
This observation is not unexpected as many pharmacological compounds have an optimal dose range and more or less of the material results in less biological activity.

In assay [5] the test system is dorsal and sympathetic ganglia. Particulars: literature (Saito 1985), cited from earlier work; for neurite outgrowth by NGF: in presence of NGF; for neurite outgrowth without NGF: on its own.
Assay [6] relates to PC12 (pheochromocytoma) cell lines. Nature of the assay: neurite outgrowth in PC12 cells. The settings on record: seven days after treatment; FIGS. 26, 27. It counts as cell-based. Here is the method: PC12 cells were seeded and maintained in 100 cm^2 tissue culture dishes at 37° C. in RRMI1640 containing 1% antibiotics, 10% heated inactivated horse serum and 5% fetal bovine serum in a water saturated atmosphere of 95% air and 5% CO2. NIE-115 cells were maintained in a flask in 90% DMEM (Dulbecco's Modified Eagle Medium, Gibco, Grand Island, N.Y., USA) with 10% FBS and antibiotic PNS (penicillin, neomycin streptomycin). The culture plates were maintained in a temperature-controlled (37° C.) humidified atmosphere consisting of 95% room air and 5% CO2. The cells were mechanically dislodged for the experiment by forceful aspiration of the medium through a Pasteur pipette and plated in 35 mm collagen-coated tissue culture dishes containing a total of 2.0 ml of complete medium at a density of 1×10^4 cells/ml. […]
The cellular response to Nerve Growth Factor (NGF) and samples were determined by counting the number of cells contained processes in PC12 cells. […]
The cells and neurites were counted as follows.
Cells with circular or global shapes and no neurite outgrowth were scored as 0 (S0).
Cells with more than two small neurites on the cell bodies were scored as S2.
Cells with one or two neurites with the length of at least two times diameter as their body were scored as S3.
Cells with more than two long neurites were scored as S4.
The neurite index was calculated as below: […]

The test system is the same in assay [7]. Particulars: literature; cited from earlier work.
Assay [8] is described as follows: Morris Water Maze and Scopolamine induced Amnesia Model. In kind it is in vivo, rat. From the text: As CVT-E001 is a mixture of ginsenosides, it may not have the same properties as pure saponins. […] Rats are required to learn the location of a hidden platform in a murky swimming pool. […] The effects of CVT-E001 on memory can also be examined in scopolamine induced amnesia (scopolamine interferes with the cholinergic neurotransmitter system and impedes learning and memory). If CVT-E001 enhances learning and/or memory it should facilitate task acquisition and/or protect against memory loss in scopolamine treated animals.
A study was designed of spatial learning and memory using the Morris water maze and scopolamine induced amnesia with CVT-E001 as the test compound. The specific aim of the experiment was to test if CVT-E001 affected the acquisition and/or retention of a new task in the presence of scopolamine induced amnesia. Rats (S/D strain males, 200-250 g, about 8 weeks old) are initially divided into two groups and fed either water (0.5 ml) or CVT-E001 (200 mg/kg/day in 0.5 ml water by gavage) for the duration of the experiment. Eight days after the initiation of CVT-E001 administration rats are given the task of learning the position of a platform hidden in a pool of murky water. The rats are placed in the pool 4 times per day for 5 days and the time required to find the platform in recorded (maximum duration 5 minutes). This time becomes shorter as the rats learn the task. On day 14 the two groups of rats are further subdivided into four groups. Six rats from each of the initial two groups receive saline injections while the remaining six rats from each initial group receive scopolamine (2 mg/kg) prior to being required to find the platform which has been moved to a new location (3 trials, maximum duration 3 minutes within 30 minutes of receiving either saline or scopolamine injection. On day 15 the procedure for day 14 was repeated with the platform remaining located in the position designated on day 14. On day 16, the procedure from day 14 was again followed except that the platform was moved to a location on the opposite side of the pool. On day 17 the procedure followed on day 14 was repeated except that the platform remains in the location designated on day 16. In each instance the time to locate the platform is recorded.
This experiment was repeated twice using 24 rats each time. The data from the two experiments was combined. One CVT-E001 treated rat died from accidental administration of CVT-E001 into the lungs.
Statistical analysis was by analysis of variance on log transformed data. As a posteriori test of significance were performed using the Newman-Keulstest.

Entries after “also recorded” stand apart in the source; their conditions may differ.

On to `CC(C)=CCC[C@](C)(O[C@@H]1O[C@H](CO)[C@@H](O)[C@H](O)[C@H]1O)[C@H]1CC[C@]2(C)[C@@H]1[C@H](O)C[C@@H]1[C@@]3(C)CC[C@H](O)C(C)(C)[C@@H]3[C@@H](O[C@@H]3O[C@H](CO)[C@@H](O)[C@H](O)[C@H]3O)C[C@]12C` [Rg1, ginsenoside Rg1], for which the learning and memory entry in assay [1] is “enhance learning and memory; also recorded: improve memory in experimental animals”.
On to `CC(C)=CCC[C@](C)(O[C@@H]1O[C@H](CO[C@@H]2O[C@H](CO)[C@@H](O)[C@H](O)[C@H]2O)[C@@H](O)[C@H](O)[C@H]1O)[C@H]1CC[C@]2(C)[C@@H]1[C@H](O)C[C@@H]1[C@@]3(C)CC[C@H](O[C@@H]4O[C@H](CO)[C@@H](O)[C@H](O)[C@H]4O[C@@H]4O[C@H](CO)[C@@H](O)[C@H](O)[C@H]4O)C(C)(C)[C@@H]3CC[C@]12C` [Rb1, ginsenoside Rb1], for which the “stimulation of choline uptake (in words)” value with rat brain synaptosomes [2] (Table 3) was “significantly stimulate choline uptake”. Further, the “potency ranking, choline uptake” value in the assay with rat brain synaptosomes [2] (Table 3, CVT-E001 contains 8.1% Rb1, 32.4% total ginsenosides, n = 4) is reported as “CVTE001 > TS > Rb1”. For the same compound, the “effect on choline uptake (FIG. 1)” value in the assay with rat brain synaptosomes [2] is listed as “promotes choline uptake”. Besides, in the assay with rat brain synaptosomes [3], the “choline uptake, previously demonstrated” value was “increase choline uptake into synaptosomes”. Further, in assay [4], the “choline uptake (in words)” value is listed as “increase choline uptake”. Further, in assay [5], the “neurite outgrowth by NGF” value is “enhance neurite outgrowth of dorsal and sympathetic ganglia”; the “neurite outgrowth without NGF” value is listed as “no effect on its own”. Further, the learning and memory result in assay [1] is “enhance learning and memory; also recorded: improve memory in experimental animals”.
Regarding `CC(C)=CCC[C@](C)(O[C@@H]1O[C@H](CO)[C@@H](O)[C@H](O)[C@H]1O)[C@H]1CC[C@]2(C)[C@@H]1[C@H](O)C[C@@H]1[C@@]3(C)CC[C@H](O[C@@H]4O[C@H](CO)[C@@H](O)[C@H](O)[C@H]4O[C@@H]4O[C@H](CO)[C@@H](O)[C@H](O)[C@H]4O)C(C)(C)[C@@H]3CC[C@]12C` [Rd, ginsenoside Rd], in assay [5], the “neurite outgrowth by NGF” value is “enhance neurite outgrowth of dorsal and sympathetic ganglia”; the “neurite outgrowth without NGF” value is given as “no effect on its own”.
With “NGF: Nerve Growth Factor, prototype neurotrophin”, the “neurite outgrowth in PC12” value in assay [6] is given as “increased neurite outgrowth in PC12 in a dose-dependent manner”. The “PC12 response to NGF treatment” value in assay [7] is “neurite outgrowth and electrical excitability”.
With `C[N+]1(C)CCOC(O)(c2ccc(-c3ccc(C4(O)C[N+](C)(C)CCO4)cc3)cc2)C1` (stereo not shown) [HC3], the “effect on choline uptake (FIG. 1)” value in the assay on rat brain synaptosomes [2] was “inhibits choline uptake”. Besides, the “choline uptake, previously demonstrated” value in the assay with rat brain synaptosomes [3] was “inhibit choline uptake”.
Turning to `CN1[C@@H]2C[C@@H](OC(=O)[C@H](CO)c3ccccc3)C[C@H]1[C@@H]1O[C@@H]12` [scopolamine], the “latency remembering platform location, combined trials” value in assay [8] (day 15, scopolamine 2 mg/kg, CVT-E001 200 mg/kg/day, FIG. 19) is listed as “significantly greater latency than all other groups”. The “latency to second new platform location, trial 3” value in assay [8] (day 16, scopolamine 2 mg/kg, FIG. 20) is listed as “demonstrated a scopolamine induced learning deficit”. Besides, the “latency remembering second platform location, first trial” value in assay [8] (day 17, scopolamine 2 mg/kg with or without CVT-E001 200 mg/kg/day, FIG. 22) was “significantly impaired”. For the same compound, the “latency remembering second platform location, combined trials” value in assay [8] (day 17, scopolamine 2 mg/kg with or without CVT-E001 200 mg/kg/day, FIG. 23) was “demonstrate a learning deficit”.
